Measured values published in patent US10640457B2, “Histone acetyltransferase activators and uses thereof” (The Trustees of Columbia University in the City of New York, priority 2009, dated 2020).
“And” between values parts separate entries of the source, which are not always exact repeats. Equal values may be shown once.

How the values were obtained:
[1] = target: T1, HDAC11 (Homo sapiens, UniProt Q96DB2); experiment: HDAC11 fluorogenic activity assay; conditions: for % Activity: Repeat1/Repeat2, listed as OA2
T1 sequence (Q96DB2 1-347): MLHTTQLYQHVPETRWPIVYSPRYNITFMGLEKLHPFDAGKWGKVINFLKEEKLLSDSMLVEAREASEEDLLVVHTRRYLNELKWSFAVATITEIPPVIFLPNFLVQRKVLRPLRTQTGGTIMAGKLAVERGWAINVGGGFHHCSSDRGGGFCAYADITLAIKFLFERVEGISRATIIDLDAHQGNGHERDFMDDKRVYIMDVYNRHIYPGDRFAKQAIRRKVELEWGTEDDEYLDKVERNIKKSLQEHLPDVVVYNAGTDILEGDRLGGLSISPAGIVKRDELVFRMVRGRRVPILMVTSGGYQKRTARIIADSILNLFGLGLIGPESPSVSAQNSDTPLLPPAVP

[2] = target: T2, HDAC7 (Homo sapiens, UniProt Q8WUI4); experiment: HDAC7 fluorogenic activity assay; conditions: Repeat1/Repeat2, listed as OA2
T2 sequence (Q8WUI4 518-952 limits assumed): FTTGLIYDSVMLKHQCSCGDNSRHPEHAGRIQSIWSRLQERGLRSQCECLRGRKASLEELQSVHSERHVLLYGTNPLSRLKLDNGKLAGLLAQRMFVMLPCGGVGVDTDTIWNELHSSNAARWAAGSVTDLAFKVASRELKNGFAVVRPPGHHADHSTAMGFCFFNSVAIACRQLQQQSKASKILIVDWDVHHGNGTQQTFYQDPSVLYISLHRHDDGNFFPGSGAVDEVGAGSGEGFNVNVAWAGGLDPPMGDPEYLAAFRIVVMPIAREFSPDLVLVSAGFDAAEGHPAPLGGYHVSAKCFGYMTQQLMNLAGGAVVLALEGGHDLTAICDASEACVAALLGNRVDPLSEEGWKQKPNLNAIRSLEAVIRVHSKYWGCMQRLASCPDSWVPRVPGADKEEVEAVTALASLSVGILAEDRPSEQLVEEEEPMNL

[3] = target: T3, HDAC10 (Homo sapiens, UniProt Q969S8); experiment: HDAC10 fluorogenic activity assay; conditions: for % Activity: Repeat1/Repeat2, listed as OA2
T3 sequence (Q969S8 1-669): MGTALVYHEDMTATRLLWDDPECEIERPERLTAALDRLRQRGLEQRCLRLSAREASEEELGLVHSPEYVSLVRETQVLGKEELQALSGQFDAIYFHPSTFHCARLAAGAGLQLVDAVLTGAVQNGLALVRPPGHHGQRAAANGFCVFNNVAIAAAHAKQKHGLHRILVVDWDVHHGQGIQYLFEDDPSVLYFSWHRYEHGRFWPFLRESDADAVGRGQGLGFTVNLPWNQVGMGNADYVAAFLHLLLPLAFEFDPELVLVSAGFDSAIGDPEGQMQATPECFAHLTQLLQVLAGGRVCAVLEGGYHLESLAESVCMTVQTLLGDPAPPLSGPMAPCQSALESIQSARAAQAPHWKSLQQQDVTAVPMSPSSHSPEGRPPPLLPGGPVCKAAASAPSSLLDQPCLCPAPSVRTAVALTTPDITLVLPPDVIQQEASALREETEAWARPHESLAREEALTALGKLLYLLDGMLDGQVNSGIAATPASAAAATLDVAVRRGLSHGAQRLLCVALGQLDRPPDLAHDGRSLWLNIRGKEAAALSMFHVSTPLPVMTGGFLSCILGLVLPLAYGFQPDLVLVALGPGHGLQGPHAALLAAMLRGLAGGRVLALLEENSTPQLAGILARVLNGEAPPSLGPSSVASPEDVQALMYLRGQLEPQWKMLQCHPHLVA

## CCOc1cccc(OCCN(C)C)c1C(=O)Nc1ccc(Cl)c(C(F)(F)F)c1 [YF2]
[1]
  IC50: > 200 µM
[1]; OA2 Log[nM] 0.5
  % Activity: 86.81%
[1]; OA2 Log[nM] 4.5
  % Activity: 108.09%
[1]; OA2 Log[nM] 5.3
  % Activity: 132.07% and 115.35%
[2]; OA2 Log[nM] 0.5
  % Activity: 103.11% and 97.69%
[2]; OA2 Log[nM] 1.0
  % Activity: 91.37% and 91.47%
[2]; OA2 Log[nM] 1.5
  % Activity: 101.63% and 104.98%
[2]; OA2 Log[nM] 2.0
  % Activity: 104.61% and 97.68%
[2]; OA2 Log[nM] 2.5
  % Activity: 95.80% and 95.75%
[2]; OA2 Log[nM] 3.0
  % Activity: 96.02% and 98.69%
[2]; OA2 Log[nM] 3.5
  % Activity: 100.73% and 92.77%
[2]; OA2 Log[nM] 4.0
  % Activity: 90.73% and 101.73%
[2]; OA2 Log[nM] 4.5
  % Activity: 95.78% and 99.80%
[2]; OA2 Log[nM] 5.3
  % Activity: 96.89% and 100.04%
[3]
  IC50: > 200 µM
[3]; OA2 Log[nM] 0.5
  % Activity: 91.08% and 101.05%
[3]; OA2 Log[nM] 1.0
  % Activity: 103.77% and 104.31%
[3]; OA2 Log[nM] 1.5
  % Activity: 105.57% and 103.85%
[3]; OA2 Log[nM] 2.0
  % Activity: 103.04% and 105.77%
[3]; OA2 Log[nM] 2.5
  % Activity: 104.90% and 105.64%
[3]; OA2 Log[nM] 3.0
  % Activity: 99.94% and 104.64%
[3]; OA2 Log[nM] 3.5
  % Activity: 96.95% and 106.25%
[3]; OA2 Log[nM] 4.0
  % Activity: 96.50% and 102.89%
[3]; OA2 Log[nM] 4.5
  % Activity: 95.38% and 102.89%
[3]; OA2 Log[nM] 5.3
  % Activity: 116.56% and 86.05%
